Laboratory results taken from patent EP1203770A1 (priority 1992, dated 1994).

Target: T1, HIV-1 protease (Human immunodeficiency virus type 1 group M subtype B, UniProt P04585)
T1 construct: The protease (or proteinase), consisting of only 99 amino acids, is among the smallest enzymes known
Test: In vitro HIV protease inhibitory assay (HIV Protease FITC Assay)
Format: biochemical
Conditions: for inhibition at 0.123 µM / inhibition at 0.37 µM / inhibition at 1.1 µM / inhibition at 3.3 µM / inhibition at 10 µM / inhibition at 30 µM: read-out: HIV-1 Protease % Inhib; for Ki: read-out: HIV-1 FITC Ki
How it was run: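 Biotin/FITC-labelled peptide substrate cleaved by HIV-1 protease for 1 h at room temperature in the dark, in 0.1 M sodium acetate pH 5.5, 1.0 M NaCl, 0.05% NP-40. Uncleaved substrate captured on avidin beads and separated by filtration; fluorescence gave % inhibition.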

Structure (SMILES)	inhibition at 0.123 µM (HIV-1 Dose 0.123 uM) [%]	inhibition at 0.37 µM (HIV-1 Dose 0.370 uM) [%]	inhibition at 1.1 µM (HIV-1 Dose 1.100 uM) [%]	inhibition at 3.3 µM (HIV-1 Dose 3.300 uM) [%]	inhibition at 10 µM (HIV-1 Dose 10.000 uM) [%]	inhibition at 30 µM (HIV-1 Dose 30.000 uM) [%]	Ki [nM]	HIV-1 Protease % Inhib (HIV-1 Dose 0.123 uM) [%]	HIV-1 Protease % Inhib (HIV-1 Dose 0.370 uM) [%]	HIV-1 Protease % Inhib (HIV-1 Dose 1.100 uM) [%]	HIV-1 Protease % Inhib (HIV-1 Dose 3.300 uM) [%]	HIV-1 Protease % Inhib (HIV-1 Dose 10.000 uM) [%]	HIV-1 Protease % Inhib (HIV-1 Dose 30.000 uM) [%]
CCC(Cc1ccccc1)c1cc(O)c(C(c2cccc(NS(=O)(=O)c3ccc(Br)cc3)c2)C2CC2)c(=O)o1 (stereo not drawn) [Example 181, 3-(α-Cyclopropyl-meta-(4-bromophenylsulfonylamino)benzyl)-6-(α-ethylphenethyl)-4-hydroxy-2H-pyran-2-one]	32.6	64.5	82.4	95.3	101	95.5	18.9	–	–	–	–	–	–
CCC(Cc1ccccc1)c1cc(O)c(C(c2cccc(NS(=O)(=O)c3cc(Cl)ccc3Cl)c2)C2CC2)c(=O)o1 (stereo not drawn) [Example 182, 3-(α-Cyclopropyl-meta-(2,5-dichlorophenylsulfonylamino)benzyl)-6-(α-ethylphenethyl)-4-hydroxy-2H-pyran-2-one]	< 10	15	45.7	71.9	94.9	96.5	–	–	–	–	–	–	–
CCC(Cc1ccccc1)c1cc(O)c(C(c2cccc(NS(=O)(=O)c3ccc(C(C)(C)C)cc3)c2)C2CC2)c(=O)o1 (stereo not drawn) [Example 183, 3-(α-Cyclopropyl-meta-(4-tert-butylphenylsulfonylamino)benzyl)-6-(α-ethylphenethyl)-4-hydroxy-2H-pyran-2-one]	< 10	11.9	28.2	60.6	88.9	90.8	–	–	–	–	–	–	–
CCC(Cc1ccccc1)c1cc(O)c(C(c2cccc(NS(=O)(=O)c3ccc(C#N)cc3)c2)C2CC2)c(=O)o1 (stereo not drawn) [Example 184, 3-(α-Cyclopropyl-meta-(4-cyanophenylsulfonylamino)benzyl)-6-(α-ethylphenethyl)-4-hydroxy-2H-pyran-2-one]	65	87	94.5	99	102	102	5.7	–	–	–	–	–	–
CCC(Cc1ccccc1)c1cc(O)c(C(c2cccc(NS(=O)(=O)c3ccc(OC)cc3)c2)C2CC2)c(=O)o1 (stereo not drawn) [Example 185, 3-(α-Cyclopropyl-meta-(4-methoxyphenylsulfonylamino)benzyl)-6-(α-ethylphenethyl)-4-hydroxy-2H-pyran-2-one]	40.5	71.4	89.1	95.9	103	92.9	–	–	–	–	–	–	–
CCC(c1ccccc1)c1cc(O)c(C(CC)c2ccccc2)c(=O)o1 (stereo not drawn) [Example 186, 3-α-Ethylbenzyl-6-α-ethylbenzyl-4-hydroxy-2H-pyran-2-one]	< 10	< 10	< 10	11	41.6	61.6	22.4	–	–	–	–	–	–
CC[C@H](Cc1ccccc1)c1cc(O)c([C@@H](CC)c2ccccc2)c(=O)o1 [Example 189, 3-([S]-α-ethylbenzyl)-4-hydroxy-6-([R]-α-ethylphenethyl)-2H-pyran-2-one]	–	–	–	–	–	–	~15	–	–	–	–	–	–
CC(C)CC1(CCc2ccccc2)CC(O)=C(C(c2ccccc2)c2ccccc2)C(=O)O1 (stereo not drawn) [Example 209, 2H-Pyran-2-one, 3-diphenylmethyl-5,6-dihydro-4-hydroxy-6-(2-methylpropyl)-6-(2-phenylethyl)-]	< 10	12	32.2	59.9	76.7	77.8	92	–	–	–	–	–	–
CC(C)CC1(CCc2ccccc2)CC(O)=C(C(/C=C/c2ccccc2)c2ccccc2)C(=O)O1 (stereo not drawn) [Example 210, 2H-Pyran-2-one, 3-(1,3-diphenyl-2-propenyl)-5.6-dihydro-4-hydroxy-6-(2-methylpropyl)-6-(2-phenylethyl)-]	< 10	< 10	37.5	61	75	86	78	–	–	–	–	–	–
CC(C)CC1(CCc2ccccc2)CC(O)=C(C(CCc2ccccc2)c2ccccc2)C(=O)O1 (stereo not drawn) [Example 211]	–	–	–	–	–	–	64	<10	21.39	47.29	66.35	89.15	92.11
CCC(Cc1ccccc1)c1cc(O)c(C(c2cccc(NC(=O)Nc3ccccc3)c2)C2CC2)c(=O)o1 (stereo not drawn) [Example 212, 3-(α-Cyclopropyl-meta-[(phenylaminocarbonyl)amino]benzyl)-6-(α-ethylphenethyl)-4-hydroxy-2H-pyran-2-one]	< 10	< 10	17.8	43.2	67.1	69.6	–	–	–	–	–	–	–
CCC(Cc1ccccc1)c1cc(O)c(C(c2cccc(NC(=O)NCc3ccccc3)c2)C2CC2)c(=O)o1 (stereo not drawn) [Example 213, 3-(α-Cyclopropyl-meta-[(benzylaminocarbonyl)amino]benzyl)-6-(α-ethylphenethyl)-4-hydroxy-2H-pyran-2-one]	< 10	12.1	30	55.4	83.7	85.8	–	–	–	–	–	–	–
CCC(Cc1ccccc1)c1cc(O)c(C(c2cccc(NC(=O)Nc3ccc(OC)cc3)c2)C2CC2)c(=O)o1 (stereo not drawn) [Example 214, 3-(α-Cyclopropyl-meta-[(4-methoxyphenylaminocarbonyl)amino]benzyl)-6-(α-ethylphenethyl)-4-hydroxy-2H-pyran-2-one]	< 10	< 10	32	66	79.5	86	–	–	–	–	–	–	–
CCC(Cc1ccccc1)c1cc(O)c(C(c2cccc(NC(=O)Nc3ccc(Br)cc3)c2)C2CC2)c(=O)o1 (stereo not drawn) [Example 215, 3-(α-Cyclopropyl-meta-[(4-bromophenylaminocarbonyl)amino]benzyl)-6-(α-ethylphenethyl)-4-hydroxy-2H-pyran-2-one]	< 10	< 10	< 10	16.1	23.1	28.8	–	–	–	–	–	–	–
CCC(Cc1ccccc1)c1cc(O)c(C(c2cccc(NC(=O)NS(=O)(=O)c3ccccc3)c2)C2CC2)c(=O)o1 (stereo not drawn) [Example 216, 3-(α-Cyclopropyl-meta-[(phenylsulfonylaminocarbonyl)amino]benzyl)-6-(α-ethylphenethyl)-4-hydroxy-2H-pyran-2-one]	< 10	29.8	61.1	85.6	91.5	90.5	122	–	–	–	–	–	–
CCCCC1(Cc2ccccc2)CC(O)=C(C(C=Cc2ccccc2)c2ccccc2)C(=O)O1 (stereo not drawn) [Example 217, 2H-Pyran-2-one, 6-butyl-5,6-dihydro-3-(1,3-diphenyl-2-propenyl)-4-hydroxy-6-phenylmethyl-]	< 10	< 10	< 10	33.1	62.4	69.1	–	–	–	–	–	–	–
CCCCC1(Cc2ccccc2)CC(O)=C(C(CCc2ccccc2)c2ccccc2)C(=O)O1 (stereo not drawn) [Example 218, 2H-Pyran-2-one, 6-butyl-5,6-dihydro-3-(1,3-diphenylpropyl)-4-hydroxy-6-phenylmethyl-]	< 10	< 10	21.2	46	59.3	58.2	–	–	–	–	–	–	–
C=CC(C1=C(O)CC(CCCC)(Cc2ccccc2)OC1=O)c1ccccc1 (stereo not drawn) [Example 219, 2H-Pyran-2-one, 6-butyl-5,6-dihydro-4-hydroxy-6-phenylmethyl-3-(1-phenyl-2-propenyl)-]	< 10	< 10	35.3	65.6	79.7	90.2	–	–	–	–	–	–	–
CCCCC1(Cc2ccccc2)CC(O)=C(C(CC)c2ccccc2)C(=O)O1 (stereo not drawn) [Example 220, 2H-Pyran-2-one, 6-butyl-5,6-dihydro-4-hydroxy-6-phenylmethyl-3-(1-phenylpropyl)-]	< 10	< 10	21.3	51.6	68.4	62.2	–	–	–	–	–	–	–
CCC(Cc1ccccc1)c1cc(O)c(C(c2cccc(NC(=O)[C@H](C)NC(=O)OC(C)(C)C)c2)C2CC2)c(=O)o1 (stereo partly drawn) [Example 221, 3-(α-Cyclopropyl-meta-(tert-butyloxycarbonyl-L-alanylamino)benzyl)-6-(α-ethylphenethyl)-4-hydroxy-2H-pyran-2-one]	43.1	72.1	87.3	102	108	101	14.6	–	–	–	–	–	–
